The source of these data is ChEMBL document CHEMBL5512692, “Colloidal Aggregation Confounds Cell-Based Covid-19 Antiviral Screens” (J Med Chem, 2024).

Active and inactive are the calls of the source. The rule behind the calls is not given here.

Data set [1] deals with SARS-CoV-2. Nature of the data set: Antiviral activity against luciferase independent SARS CoV-2 spike-pseudotyped lentivirus infected in human A549-hACE2-TMPRSS2 cells assessed as inhibition of viral entry measured after 24 hrs before centrifugation by luciferase reporter assay. The class given is functional, organism-based. The conditions noted are these: Severe acute respiratory syndrome coronavirus 2, A549-hACE2-TMPRSS2. On the technique in general: A reporter such as luciferase makes a cellular process visible.

Data set [2] deals with Bacteria. Nature of the data set: Inhibition of Beta-lactamase AmpC (unknown origin) using CENTA as chromogenic substrate assessed as enzyme recovery by measuring residual activity at approximately IC90 preincubated for 5 mins in presence of triton X-0.01% followed by substrate addition and measured for 80 sec by absorbance based analysis relative to control. Particulars: time 380.0 sec.

Data set [3] is described as follows: Absorption property of compound in DMEM media at 100 to 200 uM at 500 to 700 nm by luciferase assay. The class given is physicochemical. The conditions noted are these: dose 100-200 µM.
The nature of data set [4]: Inhibition of Beta-lactamase AmpC (unknown origin) using CENTA as chromogenic substrate preincubated for 5 mins followed by substrate addition and measured for 80 sec by absorbance based analysis. Set-up: species or system Bacteria.
Data set [5] relates to SARS-CoV-2. Briefly: Antiviral activity against SARS-CoV-2. The class given is functional, organism-based. Particulars: Severe acute respiratory syndrome coronavirus 2.
Data set [6] in a line: Aggregation property of compound in DMEM media assessed as critical aggregation concentration by DLS assay. The class given is physicochemical.
Data set [7] deals with SARS-CoV-2. Briefly: Antiviral activity against luciferase independent SARS CoV-2 spike-pseudotyped lentivirus infected in human A549-hACE2-TMPRSS2 cells assessed as inhibition of viral entry compound spin-down for 1 hr followed by viral infection and measured after 24 hrs by luciferase reporter assay. Type of data set: functional, organism-based. Particulars: Severe acute respiratory syndrome coronavirus 2, A549-hACE2-TMPRSS2.

Data set [8] deals with Bacteria. Briefly: Inhibition of Beta-lactamase AmpC (unknown origin) using CENTA as chromogenic substrate assessed as enzyme recovery by measuring residual activity at approximately IC90 preincubated for 5 mins in presence of 10 mg/ml BSA followed by enzyme addition and measured after 5 mins by absorbance based analysis relative to control. The conditions noted are these: time 10.0 min.

Data set [9] relates to SARS-CoV-2. Nature of the data set: Antiviral activity against luciferase independent SARS CoV-2 spike-pseudotyped lentivirus infected in human A549-hACE2-TMPRSS2 cells assessed as inhibition of viral entry by measuring reduction in luciferase activity incubated for 24 hrs by luciferase reporter assay. Particulars: Severe acute respiratory syndrome coronavirus 2. Type of data set: functional, organism-based.

Data set [10] can be described thus: Aggregation property of compound in 50 mM KPi buffer at pH 7 assessed as critical aggregation concentration by DLS assay. Type of data set: physicochemical.
Data set [11] is filed under the species Sus scrofa. Nature of the data set: Inhibition of porcine heart MDH using oxaloacetic acid as substrate assessed as enzyme recovery by measuring residual activity at approximately IC90 preincubated for 5 mins in presence of triton X-0.01% followed by substrate and […] addition and measured for 80 sec by absorbance based analysis relative to control. The conditions noted are these: time 380.0 sec.

The test system of data set [12] is SARS-CoV-2. Briefly: Antiviral activity against SARS-CoV-2 infected in Vero E6 cells assessed as reduction in viral infectivity. Particulars: Severe acute respiratory syndrome coronavirus 2, Vero C1008. The class given is functional, organism-based.
Data set [13] is filed under the species Sus scrofa. Briefly: Inhibition of porcine heart MDH using oxaloacetic acid as substrate assessed as enzyme recovery by measuring residual activity at approximately IC90 preincubated for 5 mins in presence of 10 mg/ml BSA followed by enzyme addition and measured after 5 mins by absorbance based analysis relative to control. The conditions noted are these: time 10.0 min.

A short description of data set [14]: Inhibition of porcine heart MDH using oxaloacetic acid as substrate preincubated for 5 mins followed by substrate and […] addition and measured for 80 sec by absorbance based analysis. Set-up: species or system Sus scrofa.
In data set [15] the test system is SARS-CoV-2. Briefly: Antiviral activity against SARS-CoV-2 infected in Vero E6 cells assessed as reduction in virus induced cytopathic effect pretreated for 30 mins followed by virus infection and measured after 72 hrs by MTS assay. The conditions noted are these: Severe acute respiratory syndrome coronavirus 2, Vero C1008. Type of data set: functional, organism-based. For orientation: Cytopathic effects are the visible damage that an infection or toxin causes in cultured cells.

Data set [16] has as its system SARS-CoV-2. Briefly: Antiviral activity against luciferase independent SARS CoV-2 spike-pseudotyped lentivirus infected in human A549-hACE2-TMPRSS2 cells assessed as inhibition of viral entry at 31.6 to 63.3 uM compound spin-down for 1 hr followed by viral infection and measured after 24 hrs by luciferase reporter assay. The class given is functional, organism-based. Particulars: Severe acute respiratory syndrome coronavirus 2, dose 31.6-63.3 µM, time 25.0 hrs.

Data set [17] has as its system SARS-CoV-2. Briefly: Antiviral activity against SARS CoV-2 spike-pseudotyped lentivirus infected in human A549-hACE2-TMPRSS2 cells assessed as inhibition of viral entry incubated for 24 hrs in absence of BSA by luciferase reporter assay. Type of data set: functional, organism-based. The conditions noted are these: Severe acute respiratory syndrome coronavirus 2, A549-hACE2-TMPRSS2, 24 h.

A further data set deals with SARS-CoV. Nature of the data set: Antiviral activity against HIV-Luc pseudotyped SARS CoV infected in Vero E6 cells assessed as reduction in virus entry preincubated for 30 mins followed by infection in cells and measured after 36 hrs by luciferase assay. Type of data set: functional, organism-based. Particulars: Severe acute respiratory syndrome-related coronavirus, Vero C1008.

The subject of data set [18] is SARS-CoV-2. Nature of the data set: Antiviral activity against SARS CoV-2 spike-pseudotyped lentivirus infected in human A549-hACE2-TMPRSS2 cells assessed as inhibition of viral entry preincubated with 10 mg/ml BSA for 5 mins followed by viral infection and further incubated for 24 hrs by luciferase reporter assay. The class given is functional, organism-based. Particulars: Severe acute respiratory syndrome coronavirus 2, A549-hACE2-TMPRSS2.

Data set [19] deals with Spike glycoprotein (Severe acute respiratory syndrome coronavirus 2) (UniProt P0DTC2). Nature of the data set: Binding affinity to Alex-fluor-647 labeled SARS-CoV-2 spike protein assessed as protein-colloid complex formation by measuring fluorescence puncta formation at 200 uM incubated for 5 mins by confocal microscopic analysis.
In data set [20] the test system is SARS-CoV-2. Briefly: Antiviral activity against SARS-CoV-2 pseudovirus infected in 293T/ACE2 cells assessed as reduction in virus entry preincubated with compound followed by infection in cells and measured after 48 hrs by luciferase based assay. The class given is functional, organism-based. The conditions noted are these: Severe acute respiratory syndrome coronavirus 2, 293T/ACE2.

For `CC1(C)[C@@H](O[C@H]2O[C@H](C(=O)O)[C@@H](O)[C@H](O)[C@H]2O[C@@H]2O[C@H](C(=O)O)[C@@H](O)[C@H](O)[C@H]2O)CC[C@]2(C)[C@H]3C(=O)C=C4[C@@H]5C[C@@](C)(C(=O)O)CC[C@]5(C)CC[C@@]4(C)[C@]3(C)CC[C@@H]12` [GLYCYRRHIZIN], the EC50 (as a rule, the concentration needed to bring the measured effect to its halfway point) in the data set on SARS-CoV-2 [1] came to 2.6 µM; with SARS-CoV-2 [5], 2500 µM; in the data set with SARS-CoV-2 [7], 45.7 µM. For the same compound, the Activity is 47% with Bacteria [2], “Not Active” in data set [3] and 60% in the data set on Bacteria [8]. Further, 33 µM corresponded to half-maximal inhibition in [4] (IC50). Also, the CAC in data set [6] worked out at 15 µM; in data set [10], 10 µM. Further, the result in the data set with SARS-CoV-2 [9] was Active.

For the compound `COc1cc(/C=C/C(=O)CC(=O)/C=C/c2ccc(O)c(OC)c2)ccc1O` [CURCUMIN], the figures for the Activity result (in data set [3]; in the data set filed under Sus scrofa [11]; in the data set listed under Sus scrofa [13]) were “Not Active”, 116% and 124%, respectively. Besides, the CAC came out at 12 µM in [6] and 26 µM in data set [10]. Moreover, the EC50 in the data set with SARS-CoV-2 [12] is 16.3 µM. The IC50 – broadly, the concentration needed to halve the response being measured – in [14] was 14 µM.

For `Cc1ccc(C(=O)Nc2ccc(S(=O)(=O)O)c3cc(S(=O)(=O)O)cc(S(=O)(=O)O)c23)cc1NC(=O)c1cccc(NC(=O)Nc2cccc(C(=O)Nc3cc(C(=O)Nc4ccc(S(=O)(=O)O)c5cc(S(=O)(=O)O)cc(S(=O)(=O)O)c45)ccc3C)c2)c1` [SURAMIN], the values for the Activity result (in data set [3]; in the data set listed under Sus scrofa [11]; in the data set filed under Sus scrofa [13]) were “Not Active”, -4.8% and 91%, respectively. For the same compound, in the data set with SARS-CoV-2 [15], the EC50 was 20 µM. Moreover, the outcome in the data set on SARS-CoV-2 [16] was Active. The compound further had an IC50 in [14] of 1.2 µM.

As for `O=C(OC[C@H]1O[C@@H](OC(=O)c2cc(O)c(O)c(O)c2)[C@H](OC(=O)c2cc(O)c(O)c(O)c2)[C@@H](OC(=O)c2cc(O)c(O)c(O)c2)[C@@H]1O)c1cc(O)c(O)c(O)c1`, the values for the Activity (in the data set on Bacteria [2]; in data set [3]; in the data set on Bacteria [8]) were 51%, “Not Active” and 80%, respectively. The EC50 was found to be 0.07 µM in the data set on SARS-CoV-2 [17] and 2.86 µM in the data set on SARS-CoV. Besides, the IC50 in data set [4] came out at 13 µM. The CAC in [6] was 9.8 µM; in [10], 12 µM.

As to `CN1CCCC(n2nc(Cc3ccc(Cl)cc3)c3ccccc3c2=O)CC1` (centres undefined) [AZELASTINE], the EC50 in the data set with SARS-CoV-2 [1] was 18.7 µM; in the data set with SARS-CoV-2 [17], 27 µM; with SARS-CoV-2 [18] it was 44.7 µM; in the data set on SARS-CoV-2 [7], 12.9 µM. In addition, the result with SARS-CoV-2 [9] was Active. Moreover, the outcome in data set [19] was inactive.

Consider `C[C@]12CC[C@@H]3c4ccc(OC(=O)c5ccccc5)cc4CC[C@H]3[C@@H]1CC[C@@H]2O` [ESTRADIOL BENZOATE], for which the Activity entry in data set [3] was “Not Active”; in the data set filed under Sus scrofa [11] it was 89.1%; in the data set filed under Sus scrofa [13] it was 62%. In the data set with SARS-CoV-2 [20], the EC50 was 0.27 µM. Besides, the CAC was 1.8 µM in [6] and 9.3 µM in [10]. Also, the IC50 in [14] was 87 µM.
